For 16 molecules, IC50 results are on record in patent US20230357179A1, “RAF KINASE INHIBITORS AND METHODS OF USE THEREOF” (Deciphera Pharmaceuticals, LLC, priority 2021, published 2023).

One may read the IC50 as the concentration that gives 50% inhibition.

The structures appear in SMILES notation.

Experiment [1] has as its target T1, B-Raf kinase (Homo sapiens, UniProt P15056).
T1 construct: GST (N); purchased Sigma
The experiment in a line: Biochemical assay for B-Raf.1 (coupled pyruvate kinase/lactate dehydrogenase). The settings on record: read-out: BRAF.1 IC50. The method, boiled down: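 Reaction rates over the 4–5 h window of a continuous 6 h, 30 °C read were converted to percent inhibition and fitted for IC50. B-Raf (0.13 nM) phosphorylated 30.1 nM MEK with 1 mM ATP; ADP coupled via PK/LDH to NADH loss at 340 nm, 1% DMSO final.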

In experiment [2] the test system is A375 cells. Put plainly: A375 cell proliferation assay (1), resazurin, 96-well. The experiment is classed as cell-based. The settings on record: Homo sapiens, A-375, inhibition of cell proliferation. The method, boiled down:
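Viability was read by resazurin fluorescence at 540 nm excitation and 600 nm emission, using a 440 μM solution added for 5–6 h at the end of culture. IC50 came from the curve fit.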
(The colour change of resazurin is a common sign of viable cells or microbes.)

Experiment [3] concerns WM3928 cells. The experiment in a line: WM3928 cell proliferation assay (1), resazurin, 96-well. In kind it is cell-based. The note with it: inhibition of cell proliferation. As for the experimental part: WM3928 Cell Proliferation Assay (1)
WM3928 cells (#WM3928-01-0001) are obtained from Rockland Immunochemicals Inc (Gilbertsville, PA). Briefly, cells were grown in MCDB 153 medium (Sigma, #M7403, St. Louis, MO) supplemented with 20% Leibovitz's L-15 (ThermoFisher #11415-064, Waltham, MA), 2% heat inactivated fetal bovine serum (ThermoFisher, #A3840001, Waltham, MA), 5 μg/mL Insulin (Bovine Pancreas) (Sigma, #I0516, St. Louis, MO), 1.68 mM Calcium Chloride (Sigma, #C-34006, St. Louis, MO) and 1% Penicillin/Streptomycin/L-Glutamine (ThermoFisher #10378016, Waltham, MA) at 37° C., 5% CO2, and 95% humidity. Cells are expanded until reaching 70-95% confluency at which point they are subcultured or harvested for assay use. A serial dilution of test compound is dispensed into a 96-well black clear bottom plate in triplicate. Three thousand cells are added per well in 200 μL complete growth medium in the 96-well plate. Plates are incubated for 67-72 hours at 37° C., 5% CO2, and 95% humidity. At the end of the incubation, 40 μL of a 440 μM solution of resazurin (Sigma, #199303, St. Louis, MO) in PBS is added to each well of the plate and plates are incubated for an additional 6-7 hours at 37° C., 5% CO2, and 95% humidity. Plates are read on a Synergy2 or equivalent reader (Biotek, Winooski VT) using an excitation of 540 nm and an emission of 600 nm. Data is analyzed using Prism software (GraphPad, San Diego, CA) to calculate IC50 values.

T1 sequence (P15056 416-766): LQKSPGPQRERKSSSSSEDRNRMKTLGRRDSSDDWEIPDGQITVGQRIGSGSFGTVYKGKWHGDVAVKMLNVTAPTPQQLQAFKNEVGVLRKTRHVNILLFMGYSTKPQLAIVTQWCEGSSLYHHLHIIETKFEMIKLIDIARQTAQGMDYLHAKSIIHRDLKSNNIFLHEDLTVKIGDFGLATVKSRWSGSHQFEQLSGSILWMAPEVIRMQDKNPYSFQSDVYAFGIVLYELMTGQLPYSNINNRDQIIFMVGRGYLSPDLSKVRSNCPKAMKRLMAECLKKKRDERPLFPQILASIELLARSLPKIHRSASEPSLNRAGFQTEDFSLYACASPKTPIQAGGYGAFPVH

As to `Cc1ccc(NC(=O)N2CCC(CC(F)(F)F)C2)cc1-c1cncc(-c2cc(NC(=O)C3CC3)ncn2)c1` (stereo not drawn) [Example 194], the IC50 in experiment [1], in experiment [2] and in experiment [3] was not above 100 nM in each case.
With `COC(=O)Nc1cc(-c2cncc(-c3cc(NC(=O)N4CC[C@H](C(F)(F)F)C4)ccc3C)c2)ccn1` [Example 211], the IC50 is not above 100 nM in experiment [1], 500 to 1000 nM in experiment [2] and 100 to 500 nM in experiment [3].
In the same order, the values of `COC(=O)Nc1cc(-c2cnnc(-c3cc(NC(=O)N4CCC(C(C)(C)O)C4)ccc3C)c2)ccn1` (stereo not drawn) [Example 206] are 500 to 1000 nM, 1000 to 10000 nM and 1000 to 10000 nM.
Taken in the same sequence, the figures for `COC(=O)Nc1cc(-c2cc(-c3cc(NC(=O)N4CC[C@H](C(F)(F)F)C4)ccc3C)nc(C)n2)ccn1` [Example 223] were not above 100 nM, 1000 to 10000 nM and 1000 to 10000 nM.
In the case of `Cc1ccc(NC(=O)N2CC[C@H](C(F)(F)F)C2)cc1-c1cncc(-c2ccnc(NC(=O)C3CC3)c2)c1` [Example 197], the results for the IC50 in experiment [1], in experiment [2] and in experiment [3] were not above 100 nM, 100 to 500 nM and 100 to 500 nM, respectively.
For the molecule `Cc1ccc(NC(=O)N2CC[C@@H](C)C2)cc1-c1cncc(-c2cc(NC(=O)C3CC3)ncn2)c1` [Example 219], the IC50 was not above 100 nM in experiment [1], 500 to 1000 nM in experiment [2] and 500 to 1000 nM in experiment [3].
As for `Cc1ccc(NC(=O)N2CC[C@@H](C(F)(F)F)C2)cc1-c1cncc(-c2cc(NC(=O)C3CC3)ncn2)c1` [Example 210], the IC50 in experiment [1] is not above 100 nM; in experiment [2], 100 to 500 nM; in experiment [3], 100 to 500 nM.
`COC(=O)Nc1cc(-c2cncc(-c3cc(NC(=O)N4CCCCC4)ccc3C)c2)ccn1` [Example 208]: the IC50 was more than 1000 nM in experiment [1], 500 to 1000 nM in experiment [2] and 500 to 1000 nM in experiment [3].
Take `COC(=O)Nc1cc(-c2cncc(-c3cc(NC(=O)N4CCCC4)ccc3C)c2)ccn1` [Example 213]: the IC50 in experiment [1] was more than 1000 nM; in experiment [2], 1000 to 10000 nM; in experiment [3], 1000 to 10000 nM.
In the case of `COC(=O)Nc1cc(-c2cnnc(-c3cc(NC(=O)N4CCC(CC(F)(F)F)C4)ccc3C)c2)ccn1` (stereo not drawn) [Example 186], the IC50 in experiment [1] was not above 100 nM; in experiment [2], 1000 to 10000 nM; in experiment [3], 500 to 1000 nM.
With `Cc1ccc(NC(=O)N2CCC3(CC3)C2)cc1-c1cncc(-c2cc(NC(=O)C3CC3)ncn2)c1` [Example 218], the IC50 in experiment [1] is not above 100 nM; in experiment [2], 100 to 500 nM; in experiment [3], 100 to 500 nM.
Take `COC(=O)Nc1cc(-c2cc(-c3cc(NC(=O)N4CCC(C(F)(F)F)C4)ccc3C)cc(OCCO)n2)ccn1` (stereo not drawn) [Example 222]: the IC50 in experiment [1] is not above 100 nM; in experiment [2] it was 100 to 500 nM; in experiment [3], not above 100 nM.
Turning to `Cc1ccc(NC(=O)N2CC[C@@H](C(F)(F)F)C2)cc1-c1cncc(-c2ccnc(NC(=O)C3CC3)c2)c1` [Example 196], the IC50 is not above 100 nM in experiment [1], 1000 to 10000 nM in experiment [2] and 500 to 1000 nM in experiment [3].
Taken in the same sequence, the figures for `Cc1ccc(NC(=O)N2CCC(CC(F)(F)F)C2)cc1-c1cncc(-c2cc(N)ncn2)c1` (stereo not drawn) [Example 207] were 100 to 500 nM, 1000 to 10000 nM and 500 to 1000 nM.
In the same order, the values of `COC(=O)Nc1cc(-c2cncc(-c3cc(NC(=O)N4CCCCCC4)ccc3C)c2)ccn1` [Example 202] are 500 to 1000 nM, 1000 to 10000 nM and 1000 to 10000 nM.
For the molecule `Cc1ccc(NC(=O)N2CCC(F)(F)C2)cc1-c1cncc(-c2cc(NC(=O)C3CC3)ncn2)c1` [Example 209], the IC50 in experiment [1] was not above 100 nM; in experiment [2], 1000 to 10000 nM; in experiment [3], 1000 to 10000 nM.
